What was measured:
[1] = test system: ABA-responsive genes ZmLEA, Zm.12309.1.S and ZmCOR410; test: qRT-PCR of ABA-responsive genes in maize; assay type: in vivo, Maize (cv. Gold rush); conditions: maize 2-week-old seedlings, roots dipped in 100 μM overnight, aerial shoot tissues
Experimental: The effects of (-)-Abz-[…] were also determined relative to stomatal apertures. Arabidopsis grown in soil pots underwent moderate drought stress under the optimal growth conditions of 22 °C and 60% relative humidity. Under these growth conditions, the leaf surface temperature of the mock-treated controls was 19.5 °C, which was lower than the surrounding atmospheric temperature because of transpirational water loss (Fig. 6a,b)[30]. […] Finally, we examined the effects of (-)-Abz-[…] on drought tolerance under more practical conditions. Three-week-old Arabidopsis were sprayed with an aqueous solution containing 50 μM (-)-Abz-[…]. Water was not supplied for 12 days, and then the plants were rehydrated. […] We also tested the effects of (-)-Abz-[…] on a monocot crop, maize, to evaluate whether (-)-Abz-[…] affected stomatal movement and enhanced ABA response across plant species. […] Thus, the effects of (-)-Abz-[…] were not restricted to the model plant Arabidopsis. Figure 7 Effects of (-)-Abz-[…] on maize. (a) Thermal images of the leaf surface temperatures of (-)-Abz-[…]-treated maize plants. (b) Leaf surface temperatures of (-)-Abz-[…]-treated maize plants. The stomatal conductance (c) and transpiration rate (d) in (-)-Abz-[…]-treated maize at different light intensities. […] Values are means with s.d. (n = 4 for leaf surface temperature, n = 3 for stomatal conductance and transpiration rate). […]

[2] = test system: Arabidopsis stomata / leaf surface temperature; test: Thermal imaging and stomatal aperture in Arabidopsis; assay type: in vivo
Experimental: The effects of (-)-Abz-[…] were also determined relative to stomatal apertures. Arabidopsis grown in soil pots underwent moderate drought stress under the optimal growth conditions of 22 °C and 60% relative humidity. Under these growth conditions, the leaf surface temperature of the mock-treated controls was 19.5 °C, which was lower than the surrounding atmospheric temperature because of transpirational water loss (Fig. 6a,b)[30]. […] Finally, we examined the effects of (-)-Abz-[…] on drought tolerance under more practical conditions. Three-week-old Arabidopsis were sprayed with an aqueous solution containing 50 μM (-)-Abz-[…]. Water was not supplied for 12 days, and then the plants were rehydrated. […] We also tested the effects of (-)-Abz-[…] on a monocot crop, maize, to evaluate whether (-)-Abz-[…] affected stomatal movement and enhanced ABA response across plant species. […] Thus, the effects of (-)-Abz-[…] were not restricted to the model plant Arabidopsis. Figure 6 Effects of (-)-Abz-[…] on Arabidopsis drought tolerance. (a,b) Three-week-old plants were treated with 50 μM of (-)-Abz-[…] and incubated overnight at 22 °C with 60% relative humidity. Thermal images of plants were obtained using a thermal imaging camera ([…], Nippon Avionics Co., Ltd.), and the average temperatures on leaf surfaces were determined with NS9200 software (n = 5, error bars represent s.d.). Representative images are shown in (a). (c) Stomatal apertures after the application of 50 μM (-)-Abz-[…]. After an overnight incubation, plants were placed at 22 °C with ~90% relative humidity for 1 h. Stomatal images were obtained using Suzuki's universal micro-printing method. […] (d) Effects of (-)-Abz-[…] on endogenous ABA levels. Four-week old plants grown in soil pots were treated with 50 μM (-)-Abz-[…], and leaves were harvested after an overnight incubation. Values are means with s.d. (n = 6). (e) Four-week-old plants were subjected to drought stress by withholding water. […]

For abscinazole-E3M [(−)-6], the “Expression of ABA-responsive genes ZmLEA, Zm.12309.1.S and ZmCOR410” value [1] was “induced the expression of ABA-responsive genes”, the Transpirational water loss ([2]; 50 μM spray, overnight) was “reduced the water loss” and the Leaf surface temperature ([2]; 50 μM spray, overnight, 22 °C, 60% relative humidity) was “increased leaf temperatures”. For the same substance, the Stomatal aperture ([2]; 50 μM, overnight then ~90% relative humidity 1 h) was “led to stomatal closure”.

From publication PMC5107945, “Abscinazole-E3M, a practical inhibitor of abscisic acid 8′-hydroxylase for improving drought tolerance” (Scientific Reports, 2016)
